Legend:
[1] = 101 kPa, Liquid, Pycnometric method
[2] = xn = mol fraction of the nth substance listed; conditions: 101 kPa, Liquid, Pycnometric method

CC(=O)[O-].CCn1cc[n+](C)c1 [1-ethyl-3-methylimidazolium acetate]
[1]
Conditions	mass density [kg/m3]
298.1 K	1102
323.1 K	1086
348.1 K	1073
373.1 K	1059

CC(=O)[O-].CCn1cc[n+](C)c1 [1-ethyl-3-methylimidazolium acetate] + CCn1cc[n+](C)c1.O=C([O-])C(F)(F)F
[2], x2 = 0
Conditions	mass density [kg/m3]
298.1 K	1102
323.1 K	1086
348.1 K	1073
373.1 K	1059

CCn1cc[n+](C)c1.O=C([O-])C(F)(F)F [1-ethyl-3-methylimidazolium trifluoroacetate]
[1]
Conditions	mass density [kg/m3]
298.1 K	1301
323.1 K	1283
348.1 K	1264
373.1 K	1250

CCn1cc[n+](C)c1.O=C([O-])C(F)(F)F [1-ethyl-3-methylimidazolium trifluoroacetate] + CC(=O)[O-].CCn1cc[n+](C)c1
mass density [kg/m3], [2]
Conditions	298.1 K	323.1 K	348.1 K	373.1 K
x1 = 0.2464	1152	1136	1121	1107
x1 = 0.5002	1204	1189	1172	1157
x1 = 0.7468	1252	1235	1217	1202
x1 = 1	1301	1283	1264	1250

Reference: the NIST ThermoML archive (doi:10.1021/je800701j)
